# Reference: US9763957B2, “Autotaxin inhibitors” (Novartis AG, priority 2013, dated 2017)
# Target: Recombinant human ATX (Homo sapiens (Human), UniProt Q13822)
# Assay: ATX inhibition assay (choline release, Amplex Red fluorescence)
# Type: biochemical
# Conditions: ATX 10 nM, LPC 18:1 10 μM, 37° C., 20 min pre-incubation; mean of n≧2
# Protocol: Reagents—LPC (oleoyl (18:1)) was purchased from Avanti Polar Lipids (Alabaster, Ala.) and solubilized in methanol to 20 mM. Amplex Red was obtained from Invitrogen Life Technologies (Paisley, UK) and dissolved in DMSO to 10 mM. Choline oxidase and horseradish peroxidase (HRP) were obtained from Sigma Aldrich (Dorset, UK) and dissolved in HBSS to 20 U/ml and 200 U/ml respectively. All reagents were stored at −20° C. in single use aliquots. All experimental measurements were performed in assay buffer made up immediately prior to use (HBSS, 0.01% BSA essentially fatty acid free).
# PerkinElmer EnVision (Fluorescence Intensity/Absorbance Monochromator) or Tecan Infinite 200 PRO series plate reader was used to detect change in fluorescent intensity.
# Assessing ATX inhibition—ATX activity was determined by measurement of released choline in reactions containing ATX (10 nM), choline oxidase (0.1 U/ml), HRP (100 U/ml), amplex red (50 μM) and LPC 18:1 (10 μM). Compounds of the invention were prepared as 10 point serial dilutions from 1 μM in duplicate and pre-incubated with ATX at 37° C. for 20 minutes prior to the addition of remaining reagents. The liberated choline was measured from changes in fluorescence intensity (λex 530 nm, λem 590 nm) of the product resurofin at 37° C. every 2 minutes over a 40-minute period. ATX activity was measured as a slope of the linear portion of the progress curve, typically between 14 to 24 minutes.
# Data analysis—Slope data was exported to Graphpad prism (Graphpad software, San Diego, Calif.) where data was fitted to equation 1. Y=Bottom+(Top-Bottom)/(1+10^((Log IC50−X)*HillSlope)) Equation 1: […]
row,SMILES,IC50 [nM]
1,"Cc1noc(C2CCCCN2C(=O)/C=C/c2ccc(Cl)cc2Cn2nnc(C)n2)n1 (racemic) [Example 23, (rac)-(E)-3-(4-Chloro-2-((5-methyl-2H-tetrazol-2-yl)methyl)phenyl)-1-(2-(3-methyl-1,2,4-oxadiazol-5-yl)piperidin-1-yl)prop-2-en-1-one]",28
2,"Cc1nnn(Cc2cc(Cl)ccc2/C=C/C(=O)N2CCCCC2c2nc(C(C)C)no2)n1 (racemic) [Example 30, (rac)-(E)-3-(4-Chloro-2-((5-methyl-2H-tetrazol-2-yl)methyl)phenyl)-1-(2-(3-isopropyl-1,2,4-oxadiazol-5-yl)piperidin-1-yl)prop-2-en-1-one]",11
3,"Cc1nnn(Cc2cc(Cl)ccc2/C=C/C(=O)N2CCCC(c3nc(C(C)C)no3)C2)n1 (racemic) [Example 34, (rac)-(E)-3-(4-Chloro-2-((5-methyl-2H-tetrazol-2-yl)methyl)phenyl)-1-(3-(3-isopropyl-1,2,4-oxadiazol-5-yl)piperidin-1-yl)prop-2-en-1-one]",29
4,"Cc1nnn(Cc2cc(Cl)ccc2/C=C/C(=O)N2CCC(C(O)c3ccc(Cl)cc3)CC2)n1 (racemic) [Example 66, rac-(E)-3-(4-Chloro-2-((5-methyl-2H-tetrazol-2-yl)methyl)phenyl)-1-(4-((4-chlorophenyl)(hydroxy)methyl)piperidin-1-yl)prop-2-en-1-one]",6
5,"Cc1noc(C2CCCCN2C(=O)/C=C/c2ccc(C(F)(F)F)cc2Cn2nnc(C)n2)n1 (single isomer, unassigned) [Example 5a, (R,E)-1-(2-(3-methyl-1,2,4-oxadiazol-5-yl)piperidin-1-yl)-3-(2-((5-methyl-2H-tetrazol-2-yl)methyl)-4-(trifluoromethyl)phenyl)prop-2-en-1-one or (S,E)-1-(2-(3-methyl-1,2,4-oxadiazol-5-yl)piperidin-1-yl)-3-(2-((5-methyl-2H-tetrazol-2-yl)methyl)-4-(trifluoromethyl)phenyl)prop-2-en-1-one]",3.5
6,"Cc1noc(C2CCCCN2C(=O)/C=C/c2ccc(C(F)(F)F)cc2Cn2nnc(C)n2)n1 (single isomer, unassigned) [Example 5b, (R,E)-1-(2-(3-methyl-1,2,4-oxadiazol-5-yl)piperidin-1-yl)-3-(2-((5-methyl-2H-tetrazol-2-yl)methyl)-4-(trifluoromethyl)phenyl)prop-2-en-1-one or (S,E)-1-(2-(3-methyl-1,2,4-oxadiazol-5-yl)piperidin-1-yl)-3-(2-((5-methyl-2H-tetrazol-2-yl)methyl)-4-(trifluoromethyl)phenyl)prop-2-en-1-one]",120
7,"Cc1noc(C2CCCCN2C(=O)/C=C/c2ccc(Cl)cc2Cn2nnc(C)n2)n1 (single isomer, unassigned) [Example 23a, (R)- or (S)-(E)-3-(4-Chloro-2-((5-methyl-2H-tetrazol-2-yl)methyl)phenyl)-1-(2-(3-methyl-1,2,4-oxadiazol-5-yl)piperidin-1-yl)prop-2-en-1-one]",9.5
8,"Cc1nnn(Cc2cc(Cl)ccc2/C=C/C(=O)N2CCCCC2c2nc(C(C)C)no2)n1 (single isomer, unassigned) [Example 30a, (R or S, E)-3-(4-Chloro-2-((5-methyl-2H-tetrazol-2-yl)methyl)phenyl)-1-(2-(3-isopropyl-1,2,4-oxadiazol-5-yl)piperidin-1-yl)prop-2-en-1-one]",4.9
9,"Cc1nnn(Cc2cc(Cl)ccc2/C=C/C(=O)N2CCCCC2c2nc(C(C)C)no2)n1 (single isomer, unassigned) [Example 30b, (R or S, E)-3-(4-chloro-2-((5-methyl-2H-tetrazol-2-yl)methyl)phenyl)-1-(2-(3-isopropyl-1,2,4-oxadiazol-5-yl)piperidin-1-yl)prop-2-en-1-one]",100
10,"Cc1nnn(Cc2cc(Cl)ccc2/C=C/C(=O)N2CCCC(c3nc(C(C)C)no3)C2)n1 (single isomer, unassigned) [Example 34a, (R or S, E)-3-(4-Chloro-2-((5-methyl-2H-tetrazol-2-yl)methyl)phenyl)-1-(3-(3-isopropyl-1,2,4-oxadiazol-5-yl)piperidin-1-yl)prop-2-en-1-one]",18
11,"Cc1nnn(Cc2cc(Cl)ccc2/C=C/C(=O)N2CCCC(c3nc(C(C)C)no3)C2)n1 (single isomer, unassigned) [Example 34b, (R or S, E)-3-(4-chloro-2-((5-methyl-2H-tetrazol-2-yl)methyl)phenyl)-1-(3-(3-isopropyl-1,2,4-oxadiazol-5-yl)piperidin-1-yl)prop-2-en-1-one]",149
12,"Cc1nnn(Cc2cc(C(F)(F)F)ccc2/C=C/C(=O)N2CCCCC2c2noc(C)n2)n1 (single isomer, unassigned) [Example 38a, (R or S, E)-1-(2-(5-Methyl-1,2,4-oxadiazol-3-yl)piperidin-1-yl)-3-(2-((5-methyl-2H-tetrazol-2-yl)methyl)-4-(trifluoromethyl)phenyl)prop-2-en-1-one]",20
13,"Cc1nnn(Cc2cc(C(F)(F)F)ccc2/C=C/C(=O)N2CCCCC2c2noc(C)n2)n1 (single isomer, unassigned) [Example 38b, (R or S, E)-1-(2-(5-methyl-1,2,4-oxadiazol-3-yl)piperidin-1-yl)-3-(2-((5-methyl-2H-tetrazol-2-yl)methyl)-4-(trifluoromethyl)phenyl)prop-2-en-1-one]",410
14,"Cc1nnn(Cc2cc(Cl)ccc2/C=C/C(=O)N2CCC(O)C[C@@H]2C)n1 (single isomer, unassigned) [Example 50a, (E)-3-(4-chloro-2-((5-methyl-2H-tetrazol-2-yl)methyl)phenyl)-1-((2S, 4R or 4S)-4-hydroxy-2-methylpiperidin-1-yl)prop-2-en-1-one]",70
15,"Cc1nnn(Cc2cc(Cl)ccc2/C=C/C(=O)N2CCC(O)C[C@H]2C)n1 (single isomer, unassigned) [Example 50b, (E)-3-(4-chloro-2-((5-methyl-2H-tetrazol-2-yl)methyl)phenyl)-1-((2R, 4R or 4S)-4-hydroxy-2-methylpiperidin-1-yl)prop-2-en-1-one]",79
16,"Cc1nnn(Cc2cc(Cl)ccc2/C=C/C(=O)N2CCC(C(O)c3ccc(Cl)cc3)CC2)n1 (single isomer, unassigned) [Example 66a, ((R or S), E)-3-(4-Chloro-2-((5-methyl-2H-tetrazol-2-yl)methyl)phenyl)-1-(4-((4-chlorophenyl)(hydroxy)methyl)piperidin-1-yl)prop-2-en-1-one]",4.2
17,"Cc1nnn(Cc2cc(Cl)ccc2/C=C/C(=O)N2CCC(C(O)c3ccc(Cl)cc3)CC2)n1 (single isomer, unassigned) [Example 66b, ((R or S), E)-3-(4-Chloro-2-((5-methyl-2H-tetrazol-2-yl)methyl)phenyl)-1-(4-((4-chlorophenyl)(hydroxy)methyl)piperidin-1-yl)prop-2-en-1-one]",4.6
18,"Cc1nnn(Cc2cc(C(F)(F)F)ccc2/C=C/C(=O)N2CCCC[C@H]2c2nnc(C)o2)n1 [Example 1, (S,E)-1-(2-(5-Methyl-1,3,4-oxadiazol-2-yl)piperidin-1-yl)-3-(2-((5-methyl-2H-tetrazol-2-yl)methyl)-4-(trifluoromethyl)phenyl)prop-2-en-1-one]",8.8
